Some test systems named below: SK-MEL-28; COLO 205; RXF 393; 786-0; MDA-MB-231; SF-295; T47D; MCF7; SK-OV-3; IGROV-1; SW-620; K562; SF-268; A549; MDA-MB-435; OVCAR-5; HOP-92; EKVX; NCI-H460; NCI-H522.
Assay in all cases: DTP human tumour cell line panel, 48 h

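Cultured in 96-well plates, cells were exposed to test compound for 48 hours across five concentrations. Abbreviation: GI50, concentration required for 50% inhibition of growth.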 Active and inactive are the calls of the source. Rule as the data show it: active = GI50 up to about 1.1 µM and inactive = higher. Where only a bound is given, the exact number is not on record here.

A word on the GI50: it is the concentration giving 50% growth inhibition. For the molecule `CSC(Cc1ccc2c(c1)Sc1ccccc1O2)=[N+]1CCOCC1`, the GI50 was 80.7 µM (inactive) in the experiment with SK-MEL-28; > 100 µM (inactive) with COLO 205; 37.6 µM (inactive) with RXF 393; 88.9 µM (inactive) with 786-0; > 100 µM (inactive) in the experiment on MDA-MB-231; 44.5 µM (inactive) in the experiment with SF-295. Moreover, the GI50 is 65.5 µM (inactive) in the experiment with T47D; 40.2 µM (inactive) with MCF7; > 100 µM (inactive) in the experiment with SK-OV-3; 48.6 µM (inactive) in the experiment with IGROV-1; > 100 µM (inactive) in the experiment on SW-620; 79.6 µM (inactive) in the experiment on K562. Also, the GI50 in the experiment with SF-268 was 61.2 µM (inactive); with A549, 63.8 µM (inactive); in the experiment on MDA-MB-435, 33 µM (inactive); in the experiment on OVCAR-5, > 100 µM (inactive); with HOP-92, 48.5 µM (inactive); with EKVX, 58.1 µM (inactive). Also, the GI50 with NCI-H460 was 48.2 µM (inactive).
Consider `Cc1ccc2c(c1)C=CC1(O2)N(c2ccccc2)C(=S)OC1(C)C` (stereo not given), for which the GI50 with SK-MEL-28 was > 100 µM (inactive); in the experiment with COLO 205, > 100 µM (inactive); in the experiment with RXF 393, 73.3 µM (inactive); in the experiment with 786-0, > 100 µM (inactive); with MDA-MB-231, > 100 µM (inactive); with SF-295, 48.2 µM (inactive). In addition, the GI50 is 3.86 µM (inactive) in the experiment on T47D; 21.3 µM (inactive) with MCF7; 21.4 µM (inactive) with SK-OV-3; 10.1 µM (inactive) with IGROV-1; 75.5 µM (inactive) in the experiment on SW-620; 7.29 µM (inactive) in the experiment on K562. Moreover, the GI50 is 89.5 µM (inactive) with SF-268; 67.5 µM (inactive) in the experiment on A549; 22.1 µM (inactive) with MDA-MB-435; 33.7 µM (inactive) with OVCAR-5; 12 µM (inactive) in the experiment on HOP-92; 30 µM (inactive) in the experiment on EKVX. Also, the GI50 in the experiment with NCI-H460 was > 100 µM (inactive).
As to `NC(=S)Nc1ccc(S(=O)(=O)Nc2ccc(S(N)(=O)=O)cc2)cc1`, the GI50 in the experiment on SK-MEL-28, in the experiment on COLO 205, with RXF 393, in the experiment on 786-0, in the experiment with MDA-MB-231 and with SF-295 was > 100 µM (inactive) each time. The GI50 in the experiment on NCI-H522, in the experiment on T47D, with MCF7, in the experiment on IGROV-1, with SW-620 and in the experiment on K562 was > 100 µM (inactive) in each case. Besides, the GI50 in the experiment on A549, in the experiment on MDA-MB-435, with OVCAR-5, in the experiment with HOP-92, in the experiment on EKVX and in the experiment with NCI-H460 was > 100 µM (inactive) in each case.
On to `Cc1ccc2ccc3ccc(C)nc3c2n1` [NEOCUPROINE], for which the GI50 in the experiment on SK-MEL-28 was > 100 µM (inactive); in the experiment on COLO 205, 0.491 µM (active); in the experiment with RXF 393, > 42 µM (inactive); with 786-0 it was > 29.7 µM (inactive); with MDA-MB-231, 5.62 µM (inactive); in the experiment on SF-295, 5.65 µM (inactive). Further, the GI50 is 74.3 µM (inactive) in the experiment with NCI-H522; 1.06 µM (active) in the experiment on T47D; 0.318 µM (active) with MCF7; > 100 µM (inactive) in the experiment on SK-OV-3; 0.429 µM (active) in the experiment on IGROV-1; 51.5 µM (inactive) in the experiment with SW-620. Further, the GI50 is 0.542 µM (active) in the experiment on K562; > 87.9 µM (inactive) with SF-268; 7.11 µM (inactive) with A549; > 100 µM (inactive) with MDA-MB-435; > 100 µM (inactive) in the experiment on HOP-92; > 100 µM (inactive) in the experiment with EKVX. Moreover, in the experiment with NCI-H460, the GI50 is 2.19 µM (inactive).

The values above are taken from ChEMBL document CHEMBL1201862, “PubChem BioAssay data set” (2004).
